# According to patent publication US20260199363A1, “METHOD OF TREATING CANCER IN A PATIENT WITH HEPATIC DYSFUNCTION” (priority 2023, published 2026):
# Read-outs that look alike come from different tables or passages of the source.
# Experiments:
# [1] = in vivo
# [2] = Study AG881-C-004 (INDIGO): hepatic enzyme elevation adverse events and dose modifications; format: in vivo, human; conditions: for TEAEs leading to death, number of subjects / Treatment-related TEAEs leading to death, number of subjects: 40 mg QD, hepatic enzymes elevation SMQ
# Source text: For Study AG881-C-004, the inclusion criteria specified that subjects with adequate hepatic (serum total bilirubin ≤1.5× upper limit of normal (ULN); and aspartate aminotransferase [AST] or alanine aminotransferase [ALT] at or below ULN; and AP≤2.5×ULN) were eligible for enrollment.
# In the INDIGO clinical trial (Study AG881-C-004), 18.6% (31/167) of patients treated with Vorasidenib experienced ALT elevations ≥3 times the ULN and 8.4% (14/167) experienced AST elevations >3 times the ULN. Among these patients, 1.2% (2/167) had concurrent ALT or AST elevations >3 times the ULN and total bilirubin ≥2 times the ULN.
# Similarly, more subjects in the vorasidenib arm experienced treatment-related TEAEs than the placebo arm (65 [38.9%] vs. 26 [16.0%] subjects, respectively).
# Table 4. Overall Summary of Treatment-Emergent Adverse Events from SMQ (Broad Search) of Hepatic Enzymes Elevation Liver-Related Investigations, Signs and Symptoms—Glioma with Vorasidenib 40 mg QD
# Most of the TEAEs were managed within the clinical trial protocol, and discontinuations due to elevated liver enzyme effects were rare (5 subjects, 3%). The median time to resolution (TTR) for the most common (occurred in ≥2 subjects) Grade ≥3 TEAEs in subjects in the vorasidenib arm are as follows:
# The exposure-efficacy analysis used the area under the curve (AUCeot) at steady state based on the actual average dose across the treatment duration until EOT.
# For the 14 subjects with dose reductions due to hepatotoxicity AE, a swimming plot showing time on study by individual subject is provided in the Figure. The plot includes details regarding timing and duration of TEAEs leading to dose reduction, timing and duration of reduced dose, as well as disease response by Blinded Independent Central Review (BIRC) at each assessment timepoint.
# glioma = experiment: Study AG881-C-004 (INDIGO): clinical response per BIRC and exposure-efficacy analysis; format: in vivo, human
# Source text: Exposure-efficacy analyses included clinical response to treatment, i.e., PFS, TTNI, OR (CR+PR+mR), CR+PR, all defined per blind independent review committee (BIRC). […] The exposure metrics were pop PK model predicted individual exposures by using post-hoc individual PK parameters and were based on the actual average dose across the treatment duration. The dose of vorasidenib used in the simulations is corrected for dose-reductions and interruptions occurring during the treatment in real life. […] The exposure-efficacy analysis used the area under the curve (AUCeot) at steady state based on the actual average dose across the treatment duration until EOT. […] For the 14 subjects with dose reductions due to hepatotoxicity AE, a swimming plot showing time on study by individual subject is provided in the Figure. The plot includes details regarding timing and duration of TEAEs leading to dose reduction, timing and duration of reduced dose, as well as disease response by Blinded Independent Central Review (BIRC) at each assessment timepoint.
# [3] = Vorasidenib plasma pharmacokinetics across doses (steady-state exposure, dose proportionality); format: in vivo, human
# Description: At the therapeutic dose of 40 mg QD (Formulation 2), the PopPK model predicted geometric mean AUC,ss and Cmax,ss were 3 times lower than corresponding exposure metrics at 300 mg QD (Formulation 1).
# [4] = Study PKH-95032-008: Phase 1, open-label, single-dose pharmacokinetics, safety and tolerability in moderate hepatic impairment vs matched normal hepatic function; format: in vivo, human; conditions: for Tmax: median (minimum, maximum); for Cmax, u: unbound; for half-life / fraction unbound: arithmetic mean±StD; for fraction unbound: read-out: Fu, ave; for AUC0-t, Ratio (%) of Geometric Means (Test/Reference) / Cmax, Ratio (%) of Geometric Means (Test/Reference): moderate hepatic impairment (Test) / normal hepatic function
# [5] = 4 subjects further reduced from 20 mg QD to 10 mg QD
# [6] = 10 subjects reduced from 40 mg QD to 20 mg QD only
# [7] = 167 subjects with glioma, only PR
# [8] = 167 subjects with glioma, only PR and MR
# [9] = Group A normal hepatic function, 20 mg single dose
# [10] = Group B moderate hepatic impairment, 20 mg single dose
# [11] = human, plasma, 20 mg, Group A normal hepatic function, 20 mg single dose
# [12] = human, plasma, 20 mg, Group B moderate hepatic impairment, 20 mg single dose
smiles,measurement,setting,value
"C[C@@H](Nc1nc(N[C@H](C)C(F)(F)F)nc(-c2cccc(Cl)n2)n1)C(F)(F)F [vorasidenib, 6-(6-chloropyridin-2-yl)-N^2,N^4-bis((R)-1,1,1-trifluoropropan-2-yl)-1,3,5-triazine-2,4-diamine]","Fecal excretion, total radioactivity recovery in feces",[1],84.7%
same,"TEAEs leading to death, number of subjects","[2]; post-crossover, N = 52",0 subjects
same,"Treatment-related TEAEs leading to death, number of subjects","[2]; post-crossover, N = 52",0 subjects
same,"TEAEs leading to death, number of subjects","[2]; without crossover, N = 167",0 subjects
same,"Treatment-related TEAEs leading to death, number of subjects","[2]; without crossover, N = 167",0 subjects
same,"TEAEs (overall) leading to dose reduction, % of subjects","[2]; human, in vivo",10.8%
same,"TEAEs (overall) leading to dose reduction, number of subjects","[2]; human, in vivo",18 subjects
same,"alanine aminotransferase increased leading to dose reduction, % of subjects","[2]; human, in vivo",7.8%
same,"alanine aminotransferase increased leading to dose reduction, number of subjects","[2]; human, in vivo",13 subjects
same,alanine aminotransferase increased: % with TTR in >60 days,"[2]; human, in vivo",41.9%
same,alanine aminotransferase increased: % with TTR in ≤15 days,"[2]; human, in vivo",9.3%
same,alanine aminotransferase increased: number of subjects with TTR in >60 days,"[2]; human, in vivo",36 subjects
same,alanine aminotransferase increased: number of subjects with TTR in ≤15 days,"[2]; human, in vivo",8 subjects
same,aspartate aminotransferase increased: % with TTR in >60 days,"[2]; human, in vivo",21.4%
same,aspartate aminotransferase increased: % with TTR in ≤15 days,"[2]; human, in vivo",28.6%
same,aspartate aminotransferase increased: number of subjects with TTR in >60 days,"[2]; human, in vivo",15 subjects
same,aspartate aminotransferase increased: number of subjects with TTR in ≤15 days,"[2]; human, in vivo",20 subjects
same,"effect of exposure (AUCavg and Cmax,avg) on ALT, AST, and bilirubin (all grade and Grade ≥2)","[2]; human, in vivo",no statistically significant effect
same,median TTR for aspartate aminotransferase increased (any grade),"[2]; human, in vivo",29.0 days
same,median time to resolution (TTR) for alanine aminotransferase increased (any grade),"[2]; human, in vivo",56.0 days
same,patients with ALT elevations ≥3 times the ULN,"[2]; human, in vivo",18.6%
same,patients with ALT elevations ≥3 times the ULN (number/total),"[2]; human, in vivo",31/167
same,patients with AST elevations >3 times the ULN,"[2]; human, in vivo",8.4%
same,patients with AST elevations >3 times the ULN (number/total),"[2]; human, in vivo",14/167
same,patients with concurrent ALT or AST elevations >3 times the ULN and total bilirubin ≥2 times the ULN,"[2]; human, in vivo",1.2%
same,patients with concurrent ALT or AST elevations >3 times the ULN and total bilirubin ≥2 times the ULN (number/total),"[2]; human, in vivo",2/167
same,subjects requiring a dose reduction from 40 mg QD to 20 mg QD only,"[2]; human, in vivo",10 subjects
same,subjects requiring a second dose reduction from 20 mg QD to 10 mg QD,"[2]; human, in vivo",4 subjects
same,"subjects with at least 1 dose reduction based on the exposure data (any reason), %","[2]; human, in vivo",16.2%
same,"subjects with at least 1 dose reduction based on the exposure data (any reason), number","[2]; human, in vivo",27 subjects
same,course of liver enzyme and bilirubin increases,[2]; in vivo,transient and improved or resolved
same,subjects with best response of SD while receiving 10 mg QD,glioma; [5],Three
same,subjects with response of PD while receiving 10 mg QD,glioma; [5],1 subject
same,subjects with best response of MR by BIRC while receiving 20 mg QD,glioma; [6],1 subject
same,subjects with best response of PD by BIRC while receiving 20 mg QD,glioma; [6],one
same,subjects with best response of SD by BIRC while receiving 20 mg QD,glioma; [6],8 subjects
same,"subjects with intervention (TTNI), %",glioma; 167 subjects with glioma,11.4%
same,"subjects with intervention (TTNI), number",glioma; 167 subjects with glioma,19 subjects
same,"subjects with progression (PFS) per BIRC, %",glioma; 167 subjects with glioma,28.1%
same,"subjects with progression (PFS) per BIRC, number",glioma; 167 subjects with glioma,47 subjects
same,"subjects with CR+PR per BIRC, %",glioma; [7],1.2%
same,"subjects with CR+PR per BIRC, number",glioma; [7],2 subjects
same,"subjects with OR (CR+PR+mR) per BIRC, %",glioma; [8],10.8%
same,"subjects with OR (CR+PR+mR) per BIRC, number",glioma; [8],18 subjects
same,"effect of exposure on efficacy responses (PFS, TTNI, OR and CR+PR)","glioma; studied exposure range, Study AG881-C-004",did not affect efficacy responses
same,dose proportionality of PK,[3]; from 10 to 200 mg,dose proportional
same,time dependence of PK,[3]; in vivo,not time-dependent
same,"AUC0-t and Cmax, normal hepatic function vs moderate hepatic impairment",[4]; 20 mg single dose,similar
same,unbound AUC0-t higher in moderate hepatic impairment compared to normal hepatic function,[4]; 20 mg single dose,23%
same,"unbound plasma protein fraction, both groups compared",[4]; 20 mg single dose,similar
same,Tmax,[4]; [9],"3.000 (0.500, 4.00) (10) h"
same,"Cmax, u",[4]; [9],0.8135 (41.7) (10) ng/mL
same,Tmax,[4]; [10],"2.000 (1.00, 3.00) (9) h"
same,"Cmax, u",[4]; [10],1.104 (54.2) (9) ng/mL
same,half-life,[4]; [11],443 ± 349 h
same,fraction unbound,[4]; [11],0.0223 ± 0.00245
same,AUC(0-t),"[4]; human, plasma, 20 mg, Group A normal hepatic function, 20 mg single dose, geometric mean (geometric CV %), read-out: AUC0-t",1440 ng·h/mL
same,Cmax,"[4]; human, plasma, 20 mg, Group A normal hepatic function, 20 mg single dose, geometric mean (geometric CV %), read-out: Cmax",36.5 ng/mL
same,Tmax,"[4]; human, plasma, 20 mg, Group A normal hepatic function, 20 mg single dose, read-out: Tmax",~3 h
same,AUC(0-t),"[4]; human, plasma, 20 mg, Group A normal hepatic function, total plasma, 20 mg, read-out: AUC0-t, Geometric Mean (linear mixed effects model)",1390 ng·h/mL
same,Cmax,"[4]; human, plasma, 20 mg, Group A normal hepatic function, total plasma, 20 mg, read-out: Cmax, Geometric Mean (linear mixed effects model)",38.2 ng/mL
same,half-life,[4]; [12],360 ± 189 h
same,fraction unbound,[4]; [12],0.0289 ± 0.00354
same,AUC(0-t),"[4]; human, plasma, 20 mg, Group B moderate hepatic impairment, 20 mg single dose, geometric mean (geometric CV %), read-out: AUC0-t",1680 ng·h/mL
same,Cmax,"[4]; human, plasma, 20 mg, Group B moderate hepatic impairment, 20 mg single dose, geometric mean (geometric CV %), read-out: Cmax",38.5 ng/mL
same,Tmax,"[4]; human, plasma, 20 mg, Group B moderate hepatic impairment, 20 mg single dose, read-out: Tmax",~2 h
same,AUC(0-t),"[4]; human, plasma, 20 mg, Group B moderate hepatic impairment, total plasma, 20 mg, read-out: AUC0-t, Geometric Mean (linear mixed effects model)",1750 ng·h/mL
same,Cmax,"[4]; human, plasma, 20 mg, Group B moderate hepatic impairment, total plasma, 20 mg, read-out: Cmax, Geometric Mean (linear mixed effects model)",38.5 ng/mL
same,tolerability of single-dose administration,[4]; in vivo,tolerable
same,"AUC0-t, Ratio (%) of Geometric Means (Test/Reference)",[4]; 20 mg,126%
same,"Cmax, Ratio (%) of Geometric Means (Test/Reference)",[4]; 20 mg,101%
same,"AUC0-t, Ratio (%) of Geometric Means (Test/Reference)","[4]; 20 mg, listed as Vorasidenib",125.97%
same,"Cmax, Ratio (%) of Geometric Means (Test/Reference)","[4]; 20 mg, listed as Vorasidenib",100.66%
same,effect of moderate hepatic impairment (Child-Pugh) on total or free (unbound) exposure,[4]; single oral dose of 20 mg,did not lead to clinically relevant changes
